One assay deals with NCI-H358. In words: Cell Growth Inhibition Assay (3D CellTiter-Glo). Type of assay: cell-based. To be noted: Homo sapiens, read-out: Cell growth IC50. Here is the method: Cell Growth Inhibition Assay
In this experimental example, the cell growth inhibitory effect of compounds according to the present invention and positive control compounds in tumor cell lines was examined.
The cell culture medium containing the compound was replaced by 100 µL every 3 days. Luminescence analysis was performed using the 3D CellTiter-Glo Luminescent Cell Viability Assay Kit (Promega, USA) (Promega catalog number G9681). […] The percent cell growth inhibition rate was calculated from the measured relative luminescence unit (RLU) as follows. Inhibition rate = 1−((RLU compound−RLU blank)/(RLU control−RLU blank)) X 100 [formula]
Background: Cellular ATP, detected with luciferase, serves as a proxy for viable cell number.

Assay [1] concerns the target T1, SOS1 and KRAS G12C interaction (Homo sapiens, UniProt Q07889).
T1 sequence (Q07889 564-1049 limits assumed): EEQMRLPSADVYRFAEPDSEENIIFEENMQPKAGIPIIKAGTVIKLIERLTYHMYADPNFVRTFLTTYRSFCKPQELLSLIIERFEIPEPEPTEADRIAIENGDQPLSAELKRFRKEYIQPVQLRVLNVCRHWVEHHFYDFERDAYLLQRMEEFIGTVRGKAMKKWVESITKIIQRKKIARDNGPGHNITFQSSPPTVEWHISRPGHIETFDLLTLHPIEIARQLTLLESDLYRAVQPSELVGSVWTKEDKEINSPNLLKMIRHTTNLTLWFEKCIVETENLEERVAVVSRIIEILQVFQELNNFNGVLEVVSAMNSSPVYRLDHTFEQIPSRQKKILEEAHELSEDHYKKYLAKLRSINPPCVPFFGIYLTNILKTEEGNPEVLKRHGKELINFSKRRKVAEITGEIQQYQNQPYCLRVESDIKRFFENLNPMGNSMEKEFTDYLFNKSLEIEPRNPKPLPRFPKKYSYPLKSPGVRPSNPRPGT
In words: Biochemical analysis of the inhibitory activity of SOS1 and KRAS G12C interaction (time-resolved fluorescence, 665/615 nm). The procedure:
Biochemical analysis of the inhibitory activity of SOS1 and KRAS G12C interaction
In this experimental example, the efficacy of the compound according to the present invention in inhibiting the binding of KRAS and SOS1 was biochemically measured. A KRAS G12C working solution was prepared by adding biotin-linked KRAS G12C protein and europium-linked streptavidin to assay buffer solution (20 mM HEPES, 50 mM NaCl, 200 µg/mL […] (BSA), 0.01% Pluronic F127). Then, SOS1, in which a tag consisting of six histidine residues is covalently linked, and anti-histidine tag antibody D2 were added to the assay buffer to prepare an SOS1 working solution. After these two working solutions were added to the wells of a well plate, solutions diluted according to the experimental concentration of the test compound from the 10 mM dimethyl sulfoxide (DMSO) stock solution of the Example compound or positive control compound were added to the wells in 100 nL aliquots using an Echo automatic dispenser (Beckman Coulter, USA), or a DMSO blank was added to the wells.

Assay [2] concerns the target T2, SOS2 and KRAS G12C interaction (Homo sapiens, UniProt Q07890).
T2 sequence (Q07890 1-1332): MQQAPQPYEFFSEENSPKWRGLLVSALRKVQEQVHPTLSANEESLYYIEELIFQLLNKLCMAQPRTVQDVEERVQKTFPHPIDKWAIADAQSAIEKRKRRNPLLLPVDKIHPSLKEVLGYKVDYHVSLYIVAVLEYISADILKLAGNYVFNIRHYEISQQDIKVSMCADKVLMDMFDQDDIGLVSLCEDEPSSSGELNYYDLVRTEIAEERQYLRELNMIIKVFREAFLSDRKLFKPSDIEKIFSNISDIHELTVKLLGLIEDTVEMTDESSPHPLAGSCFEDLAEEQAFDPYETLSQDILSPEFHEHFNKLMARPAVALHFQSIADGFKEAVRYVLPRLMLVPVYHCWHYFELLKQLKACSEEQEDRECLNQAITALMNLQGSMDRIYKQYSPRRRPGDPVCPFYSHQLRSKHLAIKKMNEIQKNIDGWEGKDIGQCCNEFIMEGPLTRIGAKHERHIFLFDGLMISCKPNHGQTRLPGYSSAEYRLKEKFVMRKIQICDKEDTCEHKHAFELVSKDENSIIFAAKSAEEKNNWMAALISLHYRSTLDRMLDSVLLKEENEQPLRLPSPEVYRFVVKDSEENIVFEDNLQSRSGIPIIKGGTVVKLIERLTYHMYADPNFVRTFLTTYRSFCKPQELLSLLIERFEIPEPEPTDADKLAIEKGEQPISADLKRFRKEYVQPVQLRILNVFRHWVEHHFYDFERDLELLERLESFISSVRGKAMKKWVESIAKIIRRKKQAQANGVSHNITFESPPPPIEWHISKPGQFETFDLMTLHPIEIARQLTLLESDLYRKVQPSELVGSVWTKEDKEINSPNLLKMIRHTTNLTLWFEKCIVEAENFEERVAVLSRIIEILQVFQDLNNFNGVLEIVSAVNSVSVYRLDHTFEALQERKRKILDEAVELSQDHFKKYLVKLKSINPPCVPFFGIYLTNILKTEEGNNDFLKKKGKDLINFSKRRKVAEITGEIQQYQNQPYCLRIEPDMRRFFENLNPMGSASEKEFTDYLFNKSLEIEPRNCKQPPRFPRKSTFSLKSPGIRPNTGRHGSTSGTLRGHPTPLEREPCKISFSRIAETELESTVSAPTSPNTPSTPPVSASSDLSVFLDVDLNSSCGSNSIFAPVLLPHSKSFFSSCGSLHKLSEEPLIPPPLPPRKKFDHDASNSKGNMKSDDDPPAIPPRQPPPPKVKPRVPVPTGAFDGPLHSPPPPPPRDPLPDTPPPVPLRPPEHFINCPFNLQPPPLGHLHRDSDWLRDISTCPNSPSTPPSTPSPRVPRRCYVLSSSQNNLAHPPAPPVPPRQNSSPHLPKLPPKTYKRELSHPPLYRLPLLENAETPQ
Type of assay: biochemical. To be noted: SOS2, KRAS G12Cs; read-out: Enzyme activity IC50.

For the next assay, the system named is MIA-PaCa-2. In words: Reactive oxygen species (ROS) production assay. The class given is cell-based. As to conditions: MIA-PaCa-2 cells, 10 µM, 24 hours; Figure 3. Here is the method:
Reactive oxygen species (ROS) production assay
In this experimental example, it was examined that the compound according to the present invention has the effect of increasing reactive oxygen in tumor cells.
MIA-PaCa-2 (Korea Cell Line Bank KCLB No. 21420), a cancer cell line harboring KRAS G12C mutation, was cultured in a cell culture medium containing RPMI1640 (Gibco, USA, catalog no. 11875-119), 10% fetal bovine serum (HyClone, USA, catalog no. SH30919.03), and 1 × diluted HyClone Antibiotic Antimycotic solution (HyClone, USA, catalog no. SV30079.01). 3 × 10^5 cells were seeded per well in a 6-well plate and cultured for 1 day at 37°C under 5% CO2 conditions. […] The cells were then collected in a microtube and analyzed for fluorescence using a BD LSRFortessa™ X-20 Cell Analyzer (BD Biosciences, USA) (excitation wavelength: 488 nm, emission wavelength: 535 nm). The fluorescence intensity due to the increase in reactive oxygen species was measured for 10,000 cells. Among the cells treated with 500 µM hydrogen peroxide, which was the positive control, the section in which the fluorescence intensity increased compared to the cells treated with the blank sample was found, and the average fluorescence intensity of the cells within this section was calculated. […]

Where [3] appears, read: SOS1, KRAS G12C, 60 minutes at room temperature, read-out: Enzyme activity IC50.

Where two headings read alike, the source gives them in different places.

By IC50 is commonly meant the concentration at which inhibition is half-maximal.

For `CNCc1ccccc1-c1csc([C@H](C)Nc2nc(C)nc3cc(OC)c(OC)cc23)c1` [BAY-293, (S)-6,7-dimethoxy-2-methyl-N-[1-[4-[2-[(methylamino)methyl]phenyl]thiophene-2-yl]ethyl]quinazolin-4-amine, reference compound], the IC50 in the assay with NCI-H358 (288 h, NCI-H358 (KRAS G12C), 96-well 3D assay plate, 12 days) was found to be 136 nM.

Take `CNCc1ccccc1-c1c[se]c([C@@H](C)Nc2nc(C)nc3cc(OC)c(O[C@H]4CCOC4)cc23)c1` [Example 2, 7-methoxy-2-methyl-N-((R)-1-(4-(2-((methylamino)methyl)phenyl)selenophen-2-yl)ethyl)-6-(((S)-tetrahydrofuran-3-yl)oxy)quinazolin-4-amine]: the IC50 in the assay on NCI-H358 (NCI-H358, 288 h) was found to be 58.7 nM; in assay [1], 16.6 nM.

On to `CNCc1ccccc1-c1c[se]c([C@@H](C)Nc2nc(Cl)nc3c2CN(C(=O)C2(OC)CCOCC2)C3)c1` [Example 3, (R)-(2-chloro-4-((1-(4-(2-((methylamino)methyl)phenyl)selenophen-2-yl)ethyl)amino)-5,7-dihydro-6H-pyrolo[3,4-d]pyrimidine-6-yl)(4-methoxytetrahydro-2H-pyran-4-yl)methanone], for which the IC50 in the assay with NCI-H358 (NCI-H358, 288 h) is 124 nM; in assay [1] it was 34.7 nM.

As to `CNCc1ccccc1-c1c[se]c([C@@H](C)Nc2nnc(C)c3cnc(N4CCOCC4)cc23)c1` [Example 4, (R)-4-methyl-N-(1-(4-(2-((methylamino)methyl)phenyl)selenophen-2-yl)ethyl)-7-morpholinopyrido[3,4-d]pyridazine-1-amine], the IC50 in the assay with NCI-H358 (NCI-H358, 288 h) amounted to 51.7 nM; in assay [1], 13.4 nM.

For `COc1cc2nc(C)nc(N[C@H](C)c3cc(-c4ccccc4CN(C)C)c[se]3)c2cc1OC` [Example 5, (R)-N-(1-(4-(2-((dimethylamino)methyl)phenyl)selenophen-2-yl)ethyl)-6,7-dimethoxyl-2-methylquinazolin-4-amine], the IC50 in the assay with NCI-H358 (NCI-H358, 288 h) was 50 nM; in assay [1], 27.7 nM.

Turning to `COc1cc2nc(C)nc(N[C@H](C)c3cc(-c4ccccc4CN4CCCC4)c[se]3)c2cc1OC` [Example 6, (R)-6,7-dimethoxyl-2-methyl-N-(1-(4-(2-(pyrrolidine-1-ylmethyl)phenyl)selenophen-2-yl)ethyl)quinazolin-4-amine], the IC50 with NCI-H358 (NCI-H358, 288 h) worked out at 87.5 nM; in assay [1] it was 76 nM.

As for `[2H]C([2H])([2H])NCc1ccccc1-c1c[se]c([C@@H](C)Nc2nc(C)nc3cc(OC)c(OC)cc23)c1` [Example 7, (R)-6,7-dimethoxyl-2-methyl-N-(1-(4-(2-(((methyl-d3)amino)methyl)phenyl)selenophen-2-yl)ethyl)quinazolin-4-amine], the IC50 in the assay on NCI-H358 (NCI-H358, 288 h) worked out at 25.6 nM; in assay [1], 19.3 nM.

For `COc1cc2nc(C)nc(N[C@H](C)c3cc(-c4ccccc4CN(C)C)c[se]3)c2cc1O[C@H]1CCOC1` [Example 8, N-((R)-1-(4-(2-((dimethylamino)methyl)phenyl)selenophen-2-yl)ethyl)-7-methoxy-2-methyl-6-(((S)-tetrahydrofuran-3-yl)oxy)quinazolin-4-amine], the IC50 in assay [1] (setting [3]) amounted to 16.2 nM.

On to `COc1cc2nc(C)nc(N[C@H](C)c3cc(-c4ccccc4CN4CCCC4)c[se]3)c2cc1O[C@H]1CCOC1` [Example 9, 7-methoxy-2-methyl-N-((R)-1-(4-(2-(pyrrolidine-1-ylmethyl)phenyl)selenophen-2-yl)ethyl)-6-(((S)-tetrahydrofuran-3-yl)oxy)quinazolin-4-amine], for which the IC50 in assay [1] (setting [3]) was 22.5 nM.

Regarding `Cc1c(C#N)cccc1[C@@H](C)Nc1nnc(C)c2cnc(N3CCOCC3)cc12` [MRTX0902, (R)-2-methyl-3-(1-((4-methyl-7-morpholinopyrido[3,4-d]pyridazine-1-yl)amino)ethyl)benzonitrile, reference compound], the IC50 in the assay on NCI-H358 (NCI-H358, 288 h) turned out to be 108 nM; in assay [2], 1640 nM. Also, the “ROS production compared to the blank sample” value with MIA-PaCa-2 is given as “did not increase ROS production”.

The values above are taken from patent EP4737453A1, “NOVEL SELENOPHENE DERIVATIVES” (Aigen Sciences Inc., priority 2023, dated 2025).
